Literature values, collected in patent US20160067273A1, “Compositions and methods for preparation of synthetic alpha-gal nanoparticles and for their clinical use” (priority 2014, published 2016).

System: human natural anti-Gal antibody
Details: equilibrium dialysis

Structure (SMILES) | fold by which affinity of anti-Gal to Galα1-3Galβ1-4GlcNAc is higher than the affinity to this carbohydrate | further results
CC(=O)N[C@H]1C(O)O[C@H](CO)[C@@H](O[C@@H]2O[C@H](CO)[C@H](O)[C@H](O[C@H]3O[C@H](CO)[C@H](O)[C@H](O)[C@H]3O)[C@H]2O)[C@@H]1O (some centres unmarked) [Galα1-3Galβ1-4GlcNAc] | – | affinity (strength of binding) of anti-Gal to synthetic free oligosaccharide, rank: highest
OC[C@H]1O[C@H](OCC2O[C@@H](O)[C@H](O)[C@@H](O)[C@@H]2O)[C@H](O)[C@@H](O)[C@H]1O (some centres unmarked) [melibiose, Galα1-6Glc] | 300 fold | –
OC[C@H]1O[C@H](O[C@H]2[C@@H](O)[C@@H](CO)O[C@@H](O[C@H]3[C@H](O)[C@@H](O)C(O)O[C@@H]3CO)[C@@H]2O)[C@H](O)[C@@H](O)[C@H]1O (some centres unmarked) [Galα1-3Galβ1-4Glc] | – | affinity of anti-Gal lower than that to Galα1-3Galβ1-4GlcNAc: approximately 30%
CO[C@@H]1O[C@H](CO)[C@H](O)[C@H](O)[C@H]1O [methyl-galactoside] | 300 fold | –
OC[C@H]1O[C@H](O[C@H]2[C@@H](O)[C@@H](CO)OC(O)[C@@H]2O)[C@H](O)[C@@H](O)[C@H]1O (some centres unmarked) [Galα1-3Gal] | 10 fold | –
